The values that follow are results of earlier work, collected in US20070043208A1, “Crystal structure of erythrocyte binding domain of EBA-175” (priority 2003, published 2007).

This data set relates to P. falciparum. Particulars: DNA plasmid prime and recombinant protein boost regimen.

For “RII: 73 kDa erythrocyte-binding domain (616 amino acid fragment) of P. falciparum EBA-175”, the “monkeys protected from P. falciparum challenge” value is 3 of 4.
